Results as given in PubChem BioAssay (NCI).
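Briefly, cells in 96-well plates were exposed to five compound concentrations for 48 h, and endpoints were estimated by linear interpolation. GI50: concentration for 50% inhibition of growth. TGI marks complete inhibition of growth.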

Tests used:
Assay in all cases: growth of human tumour cells (NCI), 48 h
HL-60(TB) leukemia = tested on: HL-60(TB) leukemia
SN12C renal = tested on: SN12C renal
786-0 renal = tested on: 786-0 renal
KM12 colon = tested on: KM12 colon
UO-31 renal = tested on: UO-31 renal
T-47D breast = tested on: T-47D breast
IGROV1 ovarian = tested on: IGROV1 ovarian
HCT-15 colon = tested on: HCT-15 colon

Compound | GI50 (HL-60(TB) leukemia) [µM] | TGI (HL-60(TB) leukemia) [µM] | GI50 (SN12C renal) [µM] | TGI (SN12C renal) [µM] | GI50 (786-0 renal) [µM] | TGI (786-0 renal) [µM] | GI50 (KM12 colon) [µM] | TGI (KM12 colon) [µM] | GI50 (UO-31 renal) [µM] | TGI (UO-31 renal) [µM] | GI50 (T-47D breast) [µM] | TGI (T-47D breast) [µM] | GI50 (IGROV1 ovarian) [µM] | TGI (IGROV1 ovarian) [µM] | GI50 (HCT-15 colon) [µM] | TGI (HCT-15 colon) [µM]
C[C@@H]1CC[C@@H]2[C@@H]1[C@H](OC(=O)/C=C/c1ccccc1)[C@]1(C3CCCCC3)C[C@@H](NC(=O)CO)[C@@]2(C)O1 | 21.5 | 40.4 | 11.4 | 24.2 | 14.9 | 29.3 | 16.3 | 32 | 4.8 | 18.7 | 14.3 | 30.8 | 17.9 | 35.5 | 15.8 | 33.2
CC(C)(C#N)c1cc(F)cc(C(=O)Nc2cc(Nc3ncccc3-c3ncnc4nc[nH]c34)ccc2F)c1 | 0.123 | > 10 | 3.11 | > 10 | > 10 | > 10 | 1.73 | > 10 | 0.287 | 3.64 | 2.9 | > 10 | 0.684 | > 10 | 3.59 | > 10
O=C1c2ccccc2C(=Cc2ccccc2)c2ccccc21 | 2.72 | 62.8 | 2.97 | 14.1 | 2.7 | 6.94 | 1.8 | 9.81 | 2.1 | 10.2 | 2.68 | 9.65 | 2.35 | 11.4 | 2.16 | 21.8
COc1cc2nccc(Oc3ccc(NC(=O)C4(C(=O)Nc5ccc(F)cc5)CC4)cc3)c2cc1Oc1ccc(N)cn1 | 2.26 | 5.23 | 1.1 | > 100 | 3.6 | 94.7 | 0.0442 | 3.1 | 2.36 | 9.32 | 1.91 | 9.91 | 1.36 | 3.94 | 3.04 | > 100
CC(=O)c1cc2c(cc1Nc1c3ccccc3nc3occ(Cl)c13)OCO2 | 0.0647 | 0.57 | 0.603 | > 100 | 0.291 | > 44.3 | 0.0556 | 0.494 | 1.09 | > 100 | – | > 100 | 0.185 | > 100 | 0.328 | –
CC(=O)O[C@H](C[C@H](C(C)C)N(C)C(=O)[C@@H](NC(=O)[C@H]1CCCCN1C)C(C)C)c1nc(C(=O)N[C@@H](Cc2ccccc2)C[C@H](C)C(=O)O)c(C(C)C)s1 | < 0.00333 | < 0.00333 | < 0.00333 | > 33.3 | < 0.00333 | 9.51 | < 0.00333 | – | 0.0161 | > 33.3 | – | – | < 0.00333 | > 33.3 | 0.0101 | > 33.3
CCOC(=O)C1=C(C)NC2SC(=O)/C(=C\c3ccccc3O)N2C1c1ccccc1 (configuration not stated) | 19.6 | 54.4 | 16.6 | 30.5 | 28.6 | > 100 | 16.6 | 43.5 | 21.9 | 66.8 | 16.1 | 51.7 | 25 | 64.1 | 30.5 | > 100
O=C(CF)N(O)c1ccc(/C=C/c2ccccc2)cc1 | 0.605 | 13.6 | 2.67 | > 63.5 | 1.98 | 7.14 | 16.5 | > 100 | 3.58 | 26.2 | 1.06 | > 34.1 | 2.53 | 13 | 13.3 | > 100
O=C(Nc1cccc(Oc2nnc(Cl)c3ccccc23)c1)Nc1ccc(Cl)c(C(F)(F)F)c1 | 0.372 | 6.06 | 0.941 | 3.85 | 0.767 | 3.01 | 0.701 | 2.97 | 0.176 | 4.19 | 0.384 | 2.24 | 1.04 | 5.85 | 0.765 | 3.53
CC(C)(C)c1[nH]cnc1/C=c1\[nH]c(=O)/c(=C/c2ccccc2)[nH]c1=O | < 0.01 | 11.1 | < 0.0144 | 69.6 | < 0.01 | 40.7 | < 0.01 | 7.44 | < 0.0144 | 27.6 | < 0.0592 | 30.9 | 0.0134 | 24.2 | < 0.01 | 13.5
CC(=O)OCC(=O)O[C@@H]1C[C@]2(C(C)C)O[C@@]1(C)[C@@H]1CC[C@@H](C)[C@H]1[C@@H]2OC(=O)/C=C/c1ccccc1 | 15 | 62 | 1.88 | 24.3 | 0.931 | 18.9 | 26.7 | > 100 | 0.0336 | 0.242 | 8.81 | > 97.2 | 42.5 | > 100 | 17.8 | > 100
Cc1cc(C2=NNC(=O)Cc3cc4c(cc32)OCCO4)cc(C)c1N | 1.59 | 54.5 | 6.17 | > 100 | 5.27 | > 100 | 0.818 | > 100 | 3.83 | > 100 | 4.41 | > 100 | 3 | > 100 | 1.25 | > 100
Oc1c(CN2CCCC2)cc(COCc2ccc(Br)cc2)c2cccnc12 | 0.355 | 1.43 | 0.989 | 5.86 | 0.484 | 2.59 | 0.621 | 11.3 | 0.0569 | 0.903 | 0.501 | 3.08 | 0.793 | 5.2 | 0.0475 | 1.72
O=C(Nc1ccc(CN2CCOCC2)cc1)c1[nH]ncc1Nc1ncnc2sccc12 | 0.249 | 0.72 | 0.39 | > 100 | 0.48 | 7.96 | 0.311 | 10.1 | – | – | 0.739 | > 100 | 0.578 | 23.6 | 0.277 | 16.7
CC1CCN(CCCCCOc2ccc3oc4cc(Cl)ccc4c(=O)c3c2)CC1 | 2.81 | 10.5 | 6.49 | 13.1 | 6.29 | 12.7 | 6.26 | 14.4 | 5.7 | 11.8 | 6.86 | 16.4 | 6.71 | 15.3 | 1.32 | 4.1
CN(C)c1ncnc2c1nnn2C1OC(CO)C(O)C1O (configuration not stated) | 0.239 | > 100 | 0.479 | > 100 | 0.226 | > 100 | 1.07 | 32.8 | 0.4 | > 100 | 0.141 | 2.81 | 0.361 | 15.9 | 0.229 | > 100

Compound | GI50 (HL-60(TB) leukemia) [µM] | TGI (HL-60(TB) leukemia) [µM] | GI50 (SN12C renal) [µM] | TGI (SN12C renal) [µM] | GI50 (786-0 renal) [µM] | TGI (786-0 renal) [µM] | GI50 (KM12 colon) [µM] | TGI (KM12 colon) [µM] | GI50 (UO-31 renal) [µM] | TGI (UO-31 renal) [µM] | GI50 (T-47D breast) [µM] | TGI (T-47D breast) [µM] | GI50 (IGROV1 ovarian) [µM] | TGI (IGROV1 ovarian) [µM] | GI50 (HCT-15 colon) [µM] | TGI (HCT-15 colon) [µM]
Cc1cccc(C(=O)/C=C/SC(=NC#N)SCc2ccccc2)c1 | – | – | 20.4 | 41.3 | 19.1 | 40.5 | 31.6 | > 100 | 30.9 | 89 | 21.6 | > 100 | 21.4 | 61.5 | 39.1 | > 100
CN[C@@H](C)[C@@H](N)c1ccccc1 | – | – | – | > 100 | – | > 100 | – | – | – | > 100 | – | – | – | > 100 | – | > 100
Cn1cc(C2=C(c3cccnc3)C(=O)NC2=O)c2ccccc21 | > 25 | > 25 | > 25 | > 25 | > 25 | > 25 | > 20.6 | > 25 | > 25 | > 25 | 14.6 | > 25 | 24.3 | > 25 | > 25 | > 25
COc1ccc(C2=NN(C(=O)c3cc(OC)c(OC)c(OC)c3)C(c3ccc(Cl)cc3)C2)cc1OC (configuration not stated) | – | – | 4.89 | 56 | 2.14 | 27.5 | 1.77 | > 100 | 1.11 | 41.8 | 3.59 | > 100 | 2.11 | 40 | 1.79 | > 100
COc1c(NC(C)=O)cc(C)cc1NC(C)=O | – | > 100 | – | > 100 | – | > 100 | – | > 100 | – | – | – | – | – | – | – | > 100
COC(=O)[C@]12CC[C@@H](C)[C@H](C)[C@@H]1C1=CC[C@@H]3[C@@]4(C)C(C=O)=C[C@@](C)(COC(=O)c5ccco5)[C@@H]4C(=O)C[C@@]3(C)[C@]1(C)CC2 | 3.58 | 15.4 | 8.69 | > 100 | 7.81 | > 100 | 4.26 | > 100 | 3.54 | > 100 | 3.71 | 50.6 | 7.66 | > 100 | 3.96 | > 100
CC/C=C\C/C=C\C[C@H](O)C/C=C1/C(=O)C=C[C@@H]1C/C=C\CCCC(=O)O | 2.93 | 10.1 | 3.6 | 43.1 | 2.47 | 5.83 | 3.06 | 11.5 | 5.99 | 20.3 | 3.88 | 20.1 | 6.78 | 25.9 | 3.47 | 15.6
CNC(=O)c1ccc2cc(C3(O)CCn4cncc43)ccc2c1 (configuration not stated) | > 73.5 | > 100 | > 100 | > 100 | > 100 | > 100 | > 100 | > 100 | > 100 | > 100 | > 100 | > 100 | > 100 | > 100 | > 100 | > 100
O=C(CN1CCN(c2ccc(Cl)cc2)CC1)N1CCN(c2nnc(-c3ccc(Cl)cc3)c(-c3ccc(Cl)cc3)n2)CC1 | > 100 | > 100 | 37 | > 100 | 22 | > 100 | 9.45 | > 100 | 20.3 | > 100 | 10.8 | > 100 | 35.1 | > 100 | > 100 | > 100
C=CC(C=O)C1(O)CCOC(=O)/C1=C\N (configuration not stated) | – | – | > 100 | > 100 | > 100 | > 100 | > 100 | > 100 | > 100 | > 100 | > 100 | > 100 | > 100 | > 100 | > 100 | > 100
O=C(CCCN1CCOCC1)Nc1ccc(Cn2nnc3c2C(=O)c2nnn(Cc4ccc(NC(=O)CCCN5CCOCC5)cc4)c2C3=O)cc1 | 1.51 | 4.91 | 1.79 | 3.67 | > 100 | > 100 | 6.99 | > 100 | > 100 | > 100 | – | – | 1.95 | 4.62 | > 100 | > 100
Cc1cc(=O)[nH]o1 | – | – | – | – | – | > 100 | – | – | – | > 100 | – | – | – | > 100 | – | > 100
O=C1OCCC1C(O)C1c2ccccc2-c2ccccc21 (configuration not stated) | – | > 100 | – | > 100 | – | > 100 | – | > 100 | – | > 100 | – | – | – | > 100 | – | –
O=C(CSC(c1ccccc1)c1ccccc1)N/N=C/c1cccc(Cl)c1 | 13.8 | 33.9 | – | – | 17.3 | 32.7 | 17.3 | 33.2 | 11.7 | 23.9 | – | – | 15.2 | 28.8 | 19.6 | 38.6
C=CC[P+](c1ccccc1)(c1ccccc1)c1ccccc1 | 1.58 | 6.03 | 6.36 | > 100 | 27.6 | > 100 | 1.46 | > 100 | 84 | > 100 | – | – | 9.74 | > 100 | > 100 | > 100
CCOc1cc2c(cc1O)/C(=N\O)C[C@@H]1[C@@H]2CC[C@]2(C)[C@@H](O)CC[C@@H]12 | – | < 0.0258 | 0.059 | > 100 | 0.015 | > 100 | 0.0797 | – | 0.984 | 46.1 | – | – | 0.296 | > 100 | – | > 36.8
